Test results from patent US20260258032A1, “TYROSINE KINASE 2 INHIBITORS AND USES THEREOF” (BIOGEN MA INC., priority 2022, published 2026).
Counter-ions that a name gives are not always drawn.

Legend:
JH2 domain of human Tyk2 = biological target: T1, JH2 domain of human Tyk2 (Homo sapiens, UniProt P29597); assay: JH2 biochemical assay (TR-FRET probe displacement); format: binding; settings: TR-FRET probe displacement, JH2 domain of human Tyk2
T1 construct: 10×His-tagged TYK2 JH2 domain (amino acid 575-876)
T1 sequence (P29597 575-876): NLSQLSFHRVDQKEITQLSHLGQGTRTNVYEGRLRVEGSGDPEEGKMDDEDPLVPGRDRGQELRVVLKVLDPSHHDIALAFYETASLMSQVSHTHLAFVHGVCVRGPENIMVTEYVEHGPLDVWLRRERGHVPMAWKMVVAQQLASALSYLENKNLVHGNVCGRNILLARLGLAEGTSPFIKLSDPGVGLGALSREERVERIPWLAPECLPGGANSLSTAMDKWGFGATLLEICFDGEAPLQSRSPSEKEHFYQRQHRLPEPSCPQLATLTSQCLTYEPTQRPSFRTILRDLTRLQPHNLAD
Summary of the method: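 A probe-displacement TR-FRET readout: compounds, tested in 3-fold, 10-point dilutions starting at […], compete with 2 nM tracer for 2 nM His-tagged JH2 (residues 575-876) detected by 0.1 nM Tb-anti-His over 60 min. IC50 comes from 4-parameter fits of normalized 520/495 nm ratios.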

[1] = system: Tyk2 kinase activity on STAT4; assay: pSTAT4 cell assay (MSD, NK92 cells); format: cell-based; settings: compounds 1 hr, then stimulated 15 minutes
Summary of the method: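 Read-out: phospho-STAT in NK92 lysates, MSD format, anti-STAT4 antibodies. Cells were serum-starved, given compound for 1 hr (10 μM top, four-fold, 10 points) and IL2-stimulated (30 ng/mL, 15 min). Normalized percent activity vs log concentration, 4-parameter logistic fit gave IC50.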

Structure (SMILES) | IC50 (JH2 domain of human Tyk2) [µM] | IC50 [1] [µM]
CC(=O)Nc1cc2c(cn1)C1(CC1)CN2c1cc(-c2cnn(C(F)F)c2)nc(C(C)(F)F)n1 [Example 383, N-(1′-(2-(1,1-difluoroethyl)-6-(1-(difluoromethyl)-1H-pyrazol-4-yl)pyrimidin-4-yl)-1′,2′-dihydrospiro[cyclopropane-1,3′-pyrrolo[3,2-c]pyridin]-6′-yl)acetamide trifluoroacetate] | ≤ 0.01 | 0.01 to 0.1
CC(=O)Nc1cc2c(cn1)C1(CC1)CN2c1cc(-c2cnn(C)c2C(F)F)nc(C(C)(F)F)n1 [Example 385, N-(1′-(2-(1,1-difluoroethyl)-6-(5-(difluoromethyl)-1-methyl-1H-pyrazol-4-yl)pyrimidin-4-yl)-1′,2′-dihydrospiro[cyclopropane-1,3′-pyrrolo[3,2-c]pyridin]-6′-yl)acetamide trifluoroacetate] | ≤ 0.01 | 0.01 to 0.1
CC(=O)Nc1cc2c(cn1)C1(CC1)CN2c1cc(-c2cnn(C3CC3)c2)nc(C(C)(F)F)n1 [Example 387, N-(1′-(6-(1-cyclopropyl-1H-pyrazol-4-yl)-2-(1,1-difluoroethyl)pyrimidin-4-yl)-1′,2′-dihydrospiro[cyclopropane-1,3′-pyrrolo[3,2-c]pyridin]-6′-yl)acetamide trifluoroacetate] | ≤ 0.01 | ≤ 0.01
CC(=O)Nc1cc2c(cn1)C1(CC1)CN2c1cc(-c2cnn(C3COC3)c2)nc(C(C)(F)F)n1 [Example 388, N-(1′-(2-(1,1-difluoroethyl)-6-(1-(oxetan-3-yl)-1H-pyrazol-4-yl)pyrimidin-4-yl)-1′,2′-dihydrospiro[cyclopropane-1,3′-pyrrolo[3,2-c]pyridin]-6′-yl)acetamide] | ≤ 0.01 | ≤ 0.01
CC(=O)Nc1cc2c(cn1)C1(CC1)CN2c1cc(-c2cnn(CC3CC3)c2)nc(C(C)(F)F)n1 [Example 389, N-(1′-(6-(1-(cyclopropylmethyl)-1H-pyrazol-4-yl)-2-(1,1-difluoroethyl)pyrimidin-4-yl)-1′,2′-dihydrospiro[cyclopropane-1,3′-pyrrolo[3,2-c]pyridin]-6′-yl)acetamide] | ≤ 0.01 | ≤ 0.01
CC(=O)Nc1cc2c(cn1)C1(CC1)CN2c1cc(-c2cnn(CCN3CCOCC3)c2)nc(C(C)(F)F)n1 [Example 390, N-(1′-(2-(1,1-difluoroethyl)-6-(1-(2-morpholinoethyl)-1H-pyrazol-4-yl)pyrimidin-4-yl)-1′,2′-dihydrospiro[cyclopropane-1,3′-pyrrolo[3,2-c]pyridin]-6′-yl)acetamide trifluoroacetate] | ≤ 0.01 | ≤ 0.01
CC(=O)Nc1cc2c(cn1)C1(CC1)CN2c1cc(-c2cnn(CCN(C)C)c2)nc(C(C)(F)F)n1 [Example 391, N-(1′-(2-(1,1-difluoroethyl)-6-(1-(2-(dimethylamino)ethyl)-1H-pyrazol-4-yl)pyrimidin-4-yl)-1′,2′-dihydrospiro[cyclopropane-1,3′-pyrrolo[3,2-c]pyridin]-6′-yl)acetamide trifluoroacetate] | ≤ 0.01 | 0.01 to 0.1
CC(=O)Nc1cc2c(cn1)C1(CC1)CN2c1cc(-c2cnn(CC(F)(F)F)c2)nc(C(C)(F)F)n1 [Example 392, N-(1′-(2-(1,1-difluoroethyl)-6-(1-(2,2,2-trifluoroethyl)-1H-pyrazol-4-yl)pyrimidin-4-yl)-1′,2′-dihydrospiro[cyclopropane-1,3′-pyrrolo[3,2-c]pyridin]-6′-yl)acetamide] | ≤ 0.01 | ≤ 0.01
COCCn1cc(-c2cc(N3CC4(CC4)c4cnc(NC(C)=O)cc43)nc(C(C)(F)F)n2)cn1 [Example 394, N-(1′-(2-(1,1-difluoroethyl)-6-(1-(2-methoxyethyl)-1H-pyrazol-4-yl)pyrimidin-4-yl)-1′,2′-dihydrospiro[cyclopropane-1,3′-pyrrolo[3,2-c]pyridin]-6′-yl)acetamide] | ≤ 0.01 | ≤ 0.01
CC(=O)Nc1cc2c(cn1)C1(CC1)CN2c1cc(-c2cn[nH]c2)nc(C(C)(F)F)n1 [Example 395, N-(1′-(2-(1,1-difluoroethyl)-6-(1H-pyrazol-4-yl)pyrimidin-4-yl)-1′,2′-dihydrospiro[cyclopropane-1,3′-pyrrolo[3,2-c]pyridin]-6′-yl)acetamide trifluoroacetate] | ≤ 0.01 | 0.01 to 0.1
CC(=O)Nc1cc2c(cn1)C1(CC1)CN2c1cc(C)nc(C2COC2)n1 [Example 396, N-(1′-(6-methyl-2-(oxetan-3-yl)pyrimidin-4-yl)-1′,2′-dihydrospiro[cyclopropane-1,3′-pyrrolo[3,2-c]pyridin]-6′-yl)acetamide] | 0.01 to 0.1 | ≥ 1
COCc1cc(N2CC3(CC3)c3cnc(NC(C)=O)cc32)nc(C(C)(F)F)n1 [Example 397, N-(1′-(2-(1,1-difluoroethyl)-6-(methoxymethyl)pyrimidin-4-yl)-1′,2′-dihydrospiro[cyclopropane-1,3′-pyrrolo[3,2-c]pyridin]-6′-yl)acetamide] | ≤ 0.01 | 0.1 to 1
CC(=O)Nc1cc2c(cn1)C1(CC1)CN2c1cc(C(C)(C)F)nc(C(C)(F)F)n1 [Example 398, N-(1′-(2-(1,1-difluoroethyl)-6-(2-fluoropropan-2-yl)pyrimidin-4-yl)-1′,2′-dihydrospiro[cyclopropane-1,3′-pyrrolo[3,2-c]pyridin]-6′-yl)acetamide] | ≤ 0.01 | 0.01 to 0.1
CC(=O)Nc1cc2c(cn1)C1(CC1)CN2c1cc(C(C)(C)O)nc(C(C)(F)F)n1 [Example 399, N-(1′-(2-(1,1-difluoroethyl)-6-(2-hydroxypropan-2-yl)pyrimidin-4-yl)-1′,2′-dihydrospiro[cyclopropane-1,3′-pyrrolo[3,2-c]pyridin]-6′-yl)acetamide] | ≤ 0.01 | 0.01 to 0.1
CC(=O)Nc1cc2c(cn1)C1(CC1)CN2c1cc(C(C)F)nc(C(C)(F)F)n1 (stereo not drawn) [Example 400, N-(1′-(2-(1,1-difluoroethyl)-6-(1-fluoroethyl)pyrimidin-4-yl)-1′,2′-dihydrospiro[cyclopropane-1,3′-pyrrolo[3,2-c]pyridin]-6′-yl)acetamide] | ≤ 0.01 | 0.01 to 0.1
COCC(F)(F)c1nc(C)cc(N2CC3(CC3)c3cnc(NC(C)=O)cc32)n1 [Example 401, N-(1′-(2-(1,1-difluoro-2-methoxyethyl)-6-methylpyrimidin-4-yl)-1′,2′-dihydrospiro[cyclopropane-1,3′-pyrrolo[3,2-c]pyridin]-6′-yl)acetamide trifluoroacetate] | 0.01 to 0.1 | ≥ 1
CC(=O)Nc1cc2c(cn1)C1(CC1)CN2c1cc(C)cc(N2CC[C@H](C#N)C2)n1 [Example 402, (S)-N-(1′-(6-(3-cyanopyrrolidin-1-yl)-4-methylpyridin-2-yl)-1′,2′-dihydrospiro[cyclopropane-1,3′-pyrrolo[3,2-c]pyridin]-6′-yl)acetamide] | 0.01 to 0.1 | ≥ 1
CC(=O)Nc1cc2c(cn1)C1(CC1)CN2c1cc(C)cc(N2CC[C@@H](C#N)C2)n1 [Example 403, (R)-N-(1′-(6-(3-cyanopyrrolidin-1-yl)-4-methylpyridin-2-yl)-1′,2′-dihydrospiro[cyclopropane-1,3′-pyrrolo[3,2-c]pyridin]-6′-yl)acetamide] | ≤ 0.01 | 0.1 to 1
CC(=O)Nc1cc2c(cn1)C1(CC1)CN2c1cc(C)cc(N2CCC(C)(C#N)C2)n1 (stereo not drawn) [Example 404, N-(1′-(6-(3-cyano-3-methylpyrrolidin-1-yl)-4-methylpyridin-2-yl)-1′,2′-dihydrospiro[cyclopropane-1,3′-pyrrolo[3,2-c]pyridin]-6′-yl)acetamide] | 0.01 to 0.1 | ≥ 1
CC(=O)Nc1cc2c(cn1)C1(CC1)CN2c1cc(C)cc(N2CCC(C)(O)C2)n1 (stereo not drawn) [Example 405, N-(1′-(6-(3-hydroxy-3-methylpyrrolidin-1-yl)-4-methylpyridin-2-yl)-1′,2′-dihydrospiro[cyclopropane-1,3′-pyrrolo[3,2-c]pyridin]-6′-yl)acetamide trifluoroacetate] | 0.1 to 1 | ≥ 1
CC(=O)Nc1cc2c(cn1)C1(CC1)CN2c1cc(C)cc(N2CCN(CCO)CC2)n1 [Example 406, N-(1′-(6-(4-(2-hydroxyethyl)piperazin-1-yl)-4-methylpyridin-2-yl)-1′,2′-dihydrospiro[cyclopropane-1,3′-pyrrolo[3,2-c]pyridin]-6′-yl)acetamide] | 0.1 to 1 | ≥ 1
CC(=O)Nc1cc2c(cn1)C1(CC1)CN2c1cc(C)nc(N2CC[C@@H](C#N)C2)n1 [Example 407, (R)-N-(1′-(2-(3-cyanopyrrolidin-1-yl)-6-methylpyrimidin-4-yl)-1′,2′-dihydrospiro[cyclopropane-1,3′-pyrrolo[3,2-c]pyridin]-6′-yl)acetamide] | ≤ 0.01 | 0.1 to 1
CC(=O)Nc1cc2c(cn1)C1(CC1)CN2c1cc(C)nc(N2CC[C@H](C#N)C2)n1 [Example 408, (S)-N-(1′-(2-(3-cyanopyrrolidin-1-yl)-6-methylpyrimidin-4-yl)-1′,2′-dihydrospiro[cyclopropane-1,3′-pyrrolo[3,2-c]pyridin]-6′-yl)acetamide] | 0.01 to 0.1 | 0.1 to 1
CC(=O)Nc1cc2c(cn1)C1(CC1)CN2c1cc(C)nc(N2CCC(C)(C#N)C2)n1 (stereo not drawn) [Example 409, N-(1′-(2-(3-cyano-3-methylpyrrolidin-1-yl)-6-methylpyrimidin-4-yl)-1′,2′-dihydrospiro[cyclopropane-1,3′-pyrrolo[3,2-c]pyridin]-6′-yl)acetamide] | 0.01 to 0.1 | ≥ 1
